Here are results for four compounds from patent US11530226B2, “Azepane inhibitors of menin-MLL interaction” (Janssen Pharmaceutica NV, priority 2016, dated 2022).

The target in assay [1] is T1, terbium chelate-labeled menin / FITC-MBM1 peptide (Menin/MLL) (Homo sapiens, UniProt O00255, T541A).
T1 construct: Menin (a. a. l-610-6×his tag) was labeled with terbium cryptate as follows
T1 sequence (O00255 with tags, fused parts or gaps T541A): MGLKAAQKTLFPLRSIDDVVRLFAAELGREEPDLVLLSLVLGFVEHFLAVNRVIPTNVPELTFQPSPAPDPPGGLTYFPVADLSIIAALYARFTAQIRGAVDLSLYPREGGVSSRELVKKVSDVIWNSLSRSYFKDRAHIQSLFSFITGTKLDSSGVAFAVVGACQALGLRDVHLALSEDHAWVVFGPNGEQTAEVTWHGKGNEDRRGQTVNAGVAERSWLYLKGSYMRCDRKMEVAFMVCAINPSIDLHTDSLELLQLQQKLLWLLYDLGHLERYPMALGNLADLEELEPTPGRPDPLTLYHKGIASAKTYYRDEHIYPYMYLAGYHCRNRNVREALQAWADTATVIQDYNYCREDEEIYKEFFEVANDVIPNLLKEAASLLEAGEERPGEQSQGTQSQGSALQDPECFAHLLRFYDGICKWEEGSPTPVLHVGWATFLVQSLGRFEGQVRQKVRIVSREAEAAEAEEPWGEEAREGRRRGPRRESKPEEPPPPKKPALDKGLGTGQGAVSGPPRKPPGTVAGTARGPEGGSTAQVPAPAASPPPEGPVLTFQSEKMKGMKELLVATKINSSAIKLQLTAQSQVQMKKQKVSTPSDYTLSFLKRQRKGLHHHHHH
In words: Menin/MLL homogenous time-resolved fluorescence (HTRF) assay. It is filed as binding. Conditions: read-out: (2) Menin HTRF assay (IC50 (nM)). An outline of the steps: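 Terbium cryptate-labeled menin (aa 1-610, 6×His), 100 pM, preincubated 5 min with compound, then 75 nM FITC-MBM1 peptide added for 15 min at ambient temperature. Buffer: 40 mM Tris pH 7.5, 50 mM NaCl, 1 mM DTT, 0.05% Pluronic F-127, 0.5% DMSO. HTRF 520/490 ratio; 11-point threefold titration from 25 μM, IC50 from % inhibition curve.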
A general note: In TR-FRET formats the signal depends on donor and acceptor labels being close together.

The subject of assay [2] is K562 cells (two MLL wildtype alleles). The experiment in a line: Proliferation assay (spheroid-like growth, 8 d, live-cell imaging), K562 control cell line. As to conditions: Homo sapiens, 192 h, absolute IC50 from AUC of confluence, read-out: (3) Spheroid assay K562. Format: cell-based. The protocol: The anti-proliferative effect of menin/MLL protein/protein interaction inhibitor test compounds was assessed in human leukemia cell lines. The cell lines MV-4-1 1 and MOLM14 harbor MEL translocations and express the MEL fusion proteins MLL-AF4 and MLL-AF9, respectively, as well as the wildtype protein from the second allele. […] K562 was used as a control cell line containing two MLL wildtype alleles in order to exclude compounds that display general cytotoxic effects.
MV-4-1 1 and MOLM14 were cultured in RPMI-1640 (Sigma Aldrich) supplemented with 10% fetal bovine serum (HyClone), 2 mM L-glutamine (Sigma Aldrich) and 50 μg/ml gentamycin (Gibco). […]
In order to assess the anti-proliferative effects, 1,500 MV-4-1 1, 300 MOLM14 or 750 K562 cells were seeded in 200 μl media per well in 96-well round bottom, ultra-low attachment plates (Costar, catalogue number 7007). […] Spheroid like growth was monitored in real-time by live-cell imaging (IncuCyteZOOM, Essenbio, 4× objective) acquiring one image every four hours for 8d. Confluence (%) as a measure of spheroid size was determined using an integrated analysis tool.
In order to determine the cumulative effect of the test compounds over time, the area under the curve (AUC) in a plot of confluence against time was calculated. […]

As to `CC(C)CNC1CCCN(c2ncnc3sc(CC(F)(F)F)cc23)CC1` (single isomer, unassigned) [Compound B1A, N-isobutyl-1-(6-(2,2,2-trifluoroethyl)thieno[2,3-d]pyrimidin-4-yl)azepan-4-amine], in assay [1], the IC50 came out at 50 nM.

As for `CC(C)CNC1CCCN(c2ncnc3sc(CC(F)(F)F)cc23)CC1` (single isomer, unassigned) [Compound B1B, N-isobutyl-1-(6-(2,2,2-trifluoroethyl)thieno[2,3-d]pyrimidin-4-yl)azepan-4-amine], the IC50 in assay [1] was found to be 788 nM.

For the compound `FC(F)(F)Cc1cc2c(N3CCC[C@@H](NCc4ccccc4)CC3)ncnc2s1` [Compound 3, (R)N-benzyl-1-(6-(2,2,2-trifluoroethyl)thieno[2,3-d]pyrimidin-4-yl)azepan-4-amine], the IC50 in assay [1] was found to be 14 nM; in assay [2], 9700 nM.

As to `FC(F)(F)Cc1cc2c(N3CCC[C@H](NCc4ccccc4)CC3)ncnc2s1` [Compound 4, (S)-N-benzyl-1-(6-(2,2,2-trifluoroethyl)thieno[2,3-d]pyrimidin-4-yl)azepan-4-amine], the figures for the IC50 in assay [1] and in assay [2] were 330 nM and 8800 nM, respectively.
